According to patent publication US6569633B1, “Modulation of the sulfonylurea receptor and calcium in adipocytes for treatment of obesity/diabetes” (Artecel Science, Inc., priority 1998, dated 2003):

How the values were obtained:
Type in all cases: cell-based
human adipocytes [1] = assay: Lipolysis (glycerol release into the culture medium) in human adipocytes
Protocol: FIG. 4. The anti-lipolytic effect of glibenclamide in human adipocytes. Activation of lipolysis in adipocytes is typically measured by release of glycerol into the media. Human adipocytes were treated with 10 μM glibenclamide alone, 10 μM glibenclamide plus 10 μM diazoxide or 10 μM glibenclamide plus 30 μM nitrendipine for 48 hr. Glycerol release was determined as described (19). *p<0.01 vs. Control.
Human adipocytes were examined for changes in lipolysis regulation by measurement of glycerol release into the media. Glycerol was measured by using a standard method (19), although other techniques for measuring glycerol would be equally useful.
Human subcutaneous abdominal adipose tissue was obtained from patients undergoing elective abdominal cosmetic surgery, although other types of adipose tissue, such as mesenteric, retroperitoneal, perirenal, or omental may be useful in identifying these compounds. Preadipocytes are isolated by collagenase treatment of the tissue and cultured adipocytes prepared as described (patent filed; Jan. 29, 1999; Ser. No. 09/240,029). Agents that regulate calcium flux in adipocytes as noted above can mediate lipolysis. Human adipocytes may be cultured in multi-well plates with different treatments between 1 hour or 24 hours as indicated, and glycerol release into the culture medium was determined as an indicator for lipolysis using a one-step enzymatic fluorometric method. The media collected from 1 hr treatments were used directly for glycerol measurements. For 24 hr treatments, media were removed, and cells were washed with Hank's Balanced Salt Solution and incubated in fresh medium for a further 10-60 min. This media were then used for glycerol measurements for 24 hr treatments.
We next investigated the role of adipocyte SUR1 on lipolysis. Lipolysis was measured as follows. Human adipocytes were treated as described below and glycerol release into the culture medium was determined as an indicator for lipolysis using a one step enzymatic fluorometric method (19). After treatment medium was obtained, HClO4 was added for deproteinization.
Agents that regulate calcium flux in adipocytes as noted above can mediate lipolysis. Human adipocytes (1 mL cells/well) were incubated in 24-well plates with different treatments for either 1 hour or 24 hours as indicated, and glycerol release into the culture medium was determined as an indicator for lipolysis using a one-step enzymatic fluorometric method. The media collected from 1 hr treatments were used directly for glycerol measurements. For 24 hr treatments, media were removed, and cells were washed with Hank's Balanced Salt Solution and incubated in fresh medium for a further 30 min. This media were then used for glycerol measurements for 24 hr treatments. After medium was collected, HClO4 was added to give a final concentration of 3% for deproteinization. The sample was centrifuged at 9000×g for 20 min. The supernatant was then collected and neutralized with 10N NaOH. Samples were stored at −80° C. prior to glycerol assay. Cells were collected, homogenized and stored at −80° C. for subsequent total protein correction by a modified Bradford method using Coomassie Blue dye (PIERCE, Rockford, Ill.).

human preadipocytes = assay: Intracellular Ca2+ ([Ca2+]i) response in human preadipocytes
human adipocytes [2] = assay: Triglyceride accumulation in human adipocytes; settings: control 28.2±4.5
Protocol: Human subcutaneous abdominal adipocytes were isolated from healthy patients undergoing cosmetic liposuction using methodology we have previously described. Briefly, the tissue was washed several times with Hank's Balanced Salt Solution, minced into small fragments and digested with type I collagenase (1 mg/mL) in a shaking water bath at 37° C. for 30-40 minutes. Cells were then filtered through a sterile nylon filter (500 μm mesh) and cultured in Dulbecco's Modified Eagle's Medium (DMEM) supplemented with 1% fetal bovine serum, 1% bovine serum albumin, 100 U/mL penicillin, 100 μg/mL streptomycin and 50 μg/mL gentamicin. Cells were subsequently cultured in suspension in sterile polypropylene flasks in a humidified 37° C./5% CO2 incubator. After one day, suspended (floating) adipocytes were transferred to fresh medium and maintained as a thin layer at the top of the culture medium to ensure access to nutrients. The cells were maintained for another 24 hours in this medium and then changed to fresh medium with the addition of SUR agonists (such as glibenclamide) for up to 48 hours with the compounds to be tested. Medium was changed every 24 hours, and cell viability was verified with trypan blue exclusion at the end of representative experiments.
Stimulation of fatty acid synthase and concomitant inhibition of lipolysis results in increased lipid accumulation in human adipocytes. Adipocytes were treated as described above, harvested, and their triglyceride content was analyzed and normalized for protein content. […] Thus, these calcium-stimulated biochemical activities will contribute to the development of adipocyte hypertrophy and potentially obesity.

[3] = system: FAS activity in human adipocytes; assay: Fatty acid synthase (FAS) activity in human adipocytes; settings: for fatty acid synthase activity: control 1.93±0.24

Question: Which “lipolysis (glycerol release)” value (human adipocytes [1]; 10 μM glibenclamide, 48 hr, control 0.193±0.050) does the source give for `COc1ccc(Cl)cc1C(=O)NCCc1ccc(S(=O)(=O)NC(=O)NC2CCCCC2)cc1` [glibenclamide] here?
Answer: 0.061±0.009 NADH μM/mg protein

Question: What about the inhibition at 10 µM (human adipocytes [1]; Homo sapiens, Adipocyte, 10 μM glibenclamide, 48 hr) of the same molecule?
Answer: 68%

Question: What about the inhibition in lipolysis (human adipocytes [1]; SUR agonists such as glibenclamide, general description) of the same molecule?
Answer: 25-70%

Question: What about the “[Ca2+]i response” value (human preadipocytes) of the same molecule?
Answer: did not exhibit any [Ca^2+]i response

Question: And the triglyceride accumulation (human adipocytes [2]; 2 μM glibenclamide (dose-responsive series))?
Answer: 46.1±6.3 μg/mg protein

Question: What about the triglyceride accumulation (human adipocytes [2]; 10 μM glibenclamide (dose-responsive series)) of the same molecule?
Answer: 58.0±3.4 μg/mg protein

Question: And the “fatty acid synthase activity” value ([3]; 2 μM glibenclamide)?
Answer: 7.90±0.4 nmol/min/mg protein

Question: What about the “increase in adipocyte FAS activity” value ([3]; 10 μM glibenclamide, 48 hr) of the same molecule?
Answer: 67%

Question: And the FAS activity ([3]; 10 μM glibenclamide, 48 hr, control 0.692±0.052)?
Answer: 1.154±0.010 NADPH nM/min/mg protein

Question: And the “fatty acid synthase activity” value ([3]; 10 μM glibenclamide)?
Answer: 12.8 ± 0.6 nmol/min/mg

Question: What about the “increased FAS activity from basal levels” value ([3]; SUR agonist such as glibenclamide, general description) of the same molecule?
Answer: 50%-500%
